Experimental findings from US12310970B2, “Compounds and methods for treating or preventing anterior segment ocular disorders and/or retinal degenerations” (YALE UNIVERSITY, priority 2018, dated 2025) are described below.

SMILES strings stand for the structures. Entries after “also recorded” stand apart in the source; their conditions may differ. Structures can show the parent of a compound that is named as a salt.

Assay type in all cases: cell-based
For test [1], the system named is Human ARPE-19 cells. The experiment in a line: TBHP-induced oxidative stress cell viability assay (RealTime-Glo) in ARPE-19. To be noted: for protection from oxidative stress-induced cell death: 0.9 μM 24 h preincubation, 400 μM TBHP 24 h; for protection from TBHP-induced cell death in screen of 65,000 compound Chemical Diversity library: initial high-throughput screening. The protocol:
Immortalized human RPE cells (ARPE-19) obtained from the American Type Culture Collection (ATCC, Manassas, VA, USA) were cultured in Dulbecco's modified Eagle's medium (DMEM; Thermo Fisher Scientific, Waltham, MA) containing 10% fetal bovine serum (FBS), 100 IU/mL penicillin, 100 μg/mL streptomycin, 100 μg/mL gentamicin, and 2.5 μg/mL amphotericin B (Thermo Fisher Scientific).
Human ARPE-19 cells were plated in 96-well plates for 24 hours in DMEM supplemented with FBS and antibiotics. ARPE-19 cells were preincubated with either ciclopirox olamine (Sigma), compound 414 (Chemical Diversity, San Diego, CA), compound 434 (Chemical Diversity) or no compound for 24 hours and then exposed to varying concentrations of tert-butyl hydroperoxide (TBHP; Sigma-Aldrich, St. Louis, MO) the next day for 24 hours. Cell viability was measured the following day by RealTime-Glo™ MT cell viability assay (Promega, Madison, WI) using a BioTek FLx800™ fluorescence reader (BioTek, Winooski, VT).
Initial screening of a library with 640 FDA-approved drugs (Enzo Life Sciences FDA-approved drug library) with known bioactivity, safety & bioavailability, and natural products was performed using TBHP, a chemical oxidizing agent, as a model of oxidative stress-induced cell death.
Initial screening of a library with 65,000 synthetic compounds (Chemical Diversity library) using tert-butyl hydroperoxide (TBHP), a chemical oxidizing agent, as a model of oxidative stress-induced cell death.

For test [2], the system named is Human ARPE-19 cells. The experiment in a line: UV-B radiation damage in ARPE-19. To be noted: then 1200 mJ/cm^2 UV-B. The method, then: Human ARPE-19 cells were plated in 96-well plates for 24 hours in DMEM supplemented with FBS and antibiotics. ARPE-19 cells were preincubated with compound or no compound for 24 hours and then exposed to 1200 mJ/cm^2 ultraviolet B (UV-B) radiation in a chamber. Cell viability was measured the following day by […] MT cell viability assay (Promega) using a BioTek FLx800™ fluorescence reader (BioTek, Winooski, VT).
Human ARPE-19 cells were then preincubated with 3 μM of ciclopirox olamine for 24 hours and then exposed to 1200 mJ/cm^2 of UV-B radiation. Ciclopirox olamine protects human ARPE-19 cells exposed to 1200 mJ/cm^2 UV-B radiation (FIG. 6).
To confirm the results using TBHP, another model of oxidative stress in which human RPE cells are exposed to UV-B light was employed. […] Human ARPE-19 cells were then preincubated with 0.6 μM of compound 414 and compound 434 for 24 hours and then exposed to 1200 mJ/cm^2 of UV-B radiation. Compound 414 and compound 434 protective human ARPE-19 cells exposed to 1200 mJ/cm^2 UV-B radiation (FIG. 11).

Test [3] concerns Human iPSC-derived RPE cells. The test is described as follows: Mitochondrial respiration (Seahorse XF) after TBHP in iPSC-derived RPE. The method, then: Human iPSC-derived RPE cells were preincubated with 3 μM ciclopirox olamine for 18 hours, then treated with 500 μM tert-butyl hydroperoxide (TBHP) for 24 hours. Oxygen consumption rate was determined using the Seahorse XF analyzer to measure mitochondrial function. FIG. 7A depicts basal respiration. FIG. 7B depicts maximal oxygen consumption rate (OCR). FIG. 7C depicts spare respiratory capacity. FIG. 7D depicts ATP production.
Human iPSCs were derived from fibroblasts of a donor with no history of retinal disease. A skin specimen was processed as previously described. Briefly, the skin biopsy was transplanted onto a culture plate and fibroblasts were grown to confluence and then treated with four Yamanaka factors, Oct3/4, Sox-2, Klf4, and c-Myc using the CytoTune™-iPS 2.0 Sendai Reprogramming Kit according to the manufacturer's instructions (Invitrogen-Gibco, Life Technologies=) (31-36). Newly generated iPSC colonies were purified and expanded using MTeSR1™ media (Stem Cell Technologies, Vancouver, Canada).
Human iPSCs were differentiated to iPSC-derived RPE cells as previously described. Human iPSC colonies were lifted and grown as embryoid bodies (EBs) for 4 days in EB formation medium (STEMCELL Technologies). After 5 days, EB medium was replaced with neural induction medium (NIM) containing DMEM/F12 (1:1), 1% N-2 supplement (MEM non-essential amino acids and 2 μg/mL heparin) and suspended EB aggregates were plated onto laminin-coated culture plates and allowed to reattach. After 16 days, neural induction medium was replaced with retinal differentiation medium (RDM) containing DMEM/F12 (3:1), 2% B-27 supplement (Invitrogen-Gibco, Life Technologies), MEM non-essential amino acids and penicillin/streptomycin. The adherent culture was maintained in RDM until the appearance of pigmented iPSC-derived RPE cells. Patches of pigmented iPSC-derived RPE cells were then micro-dissected and cultured on Transwell® plates with RDM+10% fetal bovine serum (FBS) for 2 days and then switched to RDM with 2% FBS until the cells were confluent. Human iPSC-derived RPE cells were then maintained in RDM and allowed to form monolayers within 90 days.
(§1) Analysis of mitochondrial function was performed on live cells using XFe96 Extracellular Flux Analyzer (Seahorse Bioscience) using the cell mito stress test (CMST). Human ARPE-19 cells or iPSC-derived RPE were seeded in a 96 well plate and grown for 24 h. Cells were preincubated with compound or no compound for 24 hours and then exposed to varying concentrations of TBHP the next day for 24 hours. Cells were the washed with CMST assay medium (XF base medium DMEM supplemented with 2 mM glutamine, 5.5 mM glucose, and 1 mM sodium pyruvate, pH 7.4), and then incubated in CMST medium for 1 h at 37° C. in a non-CO2 incubator. The CMST assay protocol was performed by manufacturer guidance (Seahorse Bioscience). Oxygen consumption rate (OCR) was detected under basal conditions followed by the sequential addition of oligomycin, carbonyl cyanide 4-(trifluoromethoxy) phenylhydrazone (FCCP), as well as rotenone and antimycin A. The measured parameters include: basal respiration, adenosine triphosphate (ATP) production, maximal respiration, spare respiratory capacity.
Human iPSC-derived RPE cells were preincubated with 0.6 μM of compound 414 or compound 434 for 18 hours, then treated with 300 μM TBHP for 24 hours and oxygen consumption rate determined using the Seahorse XF analyzer.

The subject of test [4] is Human ARPE-19 cells. The experiment in a line: Mitochondrial respiration (Seahorse XF, oxygen consumption rate) after TBHP in ARPE-19. The protocol: as §1
Human ARPE-19 cells were preincubated with 3 μM ciclopirox olamine for 18 hours, then treated with 500 μM TBHP for 24 hours and oxygen consumption rate determined using the Seahorse XF analyzer.
The effects of compound treatment on mitochondrial function in human RPE cells were investigated. Human ARPE-19 cells were preincubated with 0.6 μM of compound 414 or compound 434 for 18 hours, then treated with 300 μM TBHP for 24 hours and oxygen consumption rate determined using the Seahorse XF analyzer.

Setting [5] is: 3 μM 18 h, then 500 μM TBHP 24 h.
[6] abbreviates: 3 μM 18 h, then 500 μM TBHP 24 h, vs TBHP-treated group.
Where [7] appears, read: 0.6 μM 18 h, then 300 μM TBHP 24 h.

Take `Cc1cc(C2CCCCC2)n(O)c(=O)c1` [ciclopirox olamine, 6-cyclohexyl-1-hydroxy-4-methyl-2(1H)-pyridone, ethanolamine salt, reference compound]: the “cell viability after challenge with TBHP (luminescence); protection from oxidative stress-induced cell death” value with Human ARPE-19 cells [1] (ARPE-19, ciclopirox olamine preincubation 24 h, then TBHP 24 h (FIG. 1: 0.9 μM, 300 μM TBHP)) is given as “protects; also recorded: significantly enhances cell viability”. In addition, the “protection from TBHP-induced cell death in screen of 640 FDA-approved drug library” value in the test on Human ARPE-19 cells [1] (ARPE-19, initial library screening) is reported as “significantly protects”. Further, in the test with Human ARPE-19 cells [1] (human RPE cells, ciclopirox olamine alone, no TBHP), the “cell viability, treatment alone compared to no treatment” value was “significantly enhances cell viability”. Further, in the test on Human ARPE-19 cells [2] (3 μM 24 h), the “protection from UV-B radiation damage” value is on record as “protects”. Also, in test [3] (setting [5]), the ATP production result is listed as “significantly increased”, the basal respiration result is recorded as “significantly increased”, the “maximal OCR” value is “significantly increased” and the reserve capacity result is listed as “significantly increased”. In the test on Human ARPE-19 cells [4] (setting [6]), the ATP turnover entry is “significantly increased”, the basal respiration entry is on record as “significantly increased”, the “maximal OCR” value was “significantly increased” and the reserve capacity result is “significantly increased”.

Turning to `CCc1cccc(C)c1Nc1c(-c2cc(Br)ccc2O)nc2ncccn12` [compound 414], in the test on Human ARPE-19 cells [1] (ARPE-19), the “protection from oxidative stress-induced cell death” value is reported as “Protective effects” and the “protection from TBHP-induced cell death in screen of 65,000 compound Chemical Diversity library” value was “significantly protects”. For the same compound, in the test with Human ARPE-19 cells [1] (ARPE-19, compound preincubation, TBHP 24 h (FIG. 8: 0.6 μM, 300 μM TBHP)), the “cell viability after challenge with TBHP (luminescence); protection from oxidative stress-induced cell death” value is listed as “protects; also recorded: significantly enhances cell viability”. Besides, the “protection from UV-B radiation damage” value with Human ARPE-19 cells [2] (0.6 μM 24 h) is “protective”. Besides, in test [3] (setting [7]), the ATP production result is listed as “significantly increased”, the basal respiration result is “significantly increased”, the “maximal OCR” value is on record as “significantly increased” and the reserve capacity entry is reported as “significantly increased”. In the test with Human ARPE-19 cells [4] (setting [7]), the ATP production result is “significantly increased”, the basal respiration entry was “significantly increased”, the “maximal OCR” value is recorded as “significantly increased” and the reserve capacity result is on record as “significantly increased”.

Consider `CCc1cccc(C)c1Nc1c(-c2cc(Br)ccc2O)nc2nc(C)cc(C)n12` [compound 434], for which, in the test on Human ARPE-19 cells [1] (ARPE-19), the “protection from oxidative stress-induced cell death” value was “Protective effects” and the “protection from TBHP-induced cell death in screen of 65,000 compound Chemical Diversity library” value is “significantly protects”. Moreover, the “protection from UV-B radiation damage” value in the test with Human ARPE-19 cells [2] (0.6 μM 24 h) is recorded as “protective”. In addition, in test [3] (setting [7]), the ATP production result was “significantly increased” and the basal respiration entry is “significantly increased”. Moreover, in the test on Human ARPE-19 cells [4] (setting [7]), the ATP production result is “significantly increased”, the basal respiration entry is reported as “significantly increased”, the “maximal OCR” value is on record as “significantly increased” and the reserve capacity entry is recorded as “significantly increased”.
